From PMC3632207 (Journal of medicinal chemistry, 2013)

Molecular target: rat nNOS (Rattus norvegicus, UniProt P29476)
Test: NOS inhibition, hemoglobin capture assay
Assay type: biochemical
Conditions: data not shown

## Cc1cc(N)nc(CCc2cc(CCCN)cc(CCc3cc(C)cc(N)n3)c2)c1 [Compound 4, 6,6'-((5-(3-Aminopropyl)-1,3-phenylene)bis(ethane-2,1-diyl))bis(4-methylpyridin-2-amine)]
  Competition with H4B: not to be competitive with H4B
